Series [1] can be described thus: method code SF-HPLC, from DOI: 10.1002/hlca.19880710534. The conditions noted are these: pH 7.4.
A short description of series [2]: method code SF-AS, from DOI: 10.1080/10826079508009280. The note with it: pH 7.0.
Series [3] is described as follows: method code SF, from PMID: 3261785.
A short description of series [4]: method code SF-AS, from DOI: 10.1016/j.bmc.2011.10.017, PMID: 22094277. The conditions noted are these: pH 7.4.
Series [5] can be described thus: method code SF-AS, from DOI: 10.1021/jf60167a006.
Series [6] is described as follows: method code SF-AS, from DOI: 10.1081/jlc-100101494.
The nature of series [7]: method code SF-AS, from Brown, J.; Yu, N.; Cory, M.; Bicknell, R.; Taylor, D. (1978). In vivo evaluation of the radiosensitizing and cytotoxic properties of newly synthesized electron-affinic drugs. 3, 206-211.
Assay in series [8]: not given
This is another data set of the same source.

A short description of series [9]: method code SF-RC, from DOI: 10.1021/jm00360a016, PMID: 6854590.
Assay in series [10]: not given
This is another data set of the same source.

Assay in series [11]: not given
This is another data set of the same source.

Assay in series [12]: not given
This is another data set of the same source.

A short description of series [13]: method code SF-AS, from DOI: 10.1021/jf60220a002.
Series [14] in a line: method code SF-CR+AS, from Korenman, I.; Lineva, S.; Gezikova, N. (1978). Extraction of naphthol-sulfonic acids from aqueous solution. Zh. Prikl. Khim., 51(4)869-871.
A short description of series [15]: method code SF-AS, from DOI: 10.1021/jm00212a022, PMID: 836502.
Series [16] can be described thus: method code SF, from DOI: 10.1016/0378-5173(90)90261-2. The conditions noted are these: pH 3.0.
Assay in series [17]: not given
The source holds these as a separate data set.

Series [18] can be described thus: method code SF-GLC, from DOI: 10.1016/0045-6535(95)00311-u.
Series [19] is described as follows: method code SF-AS, from DOI: 10.1021/jm00128a017, PMID: 2754702. The note with it: pH 7.4.
Assay in series [20]: not given
The source holds these as a separate data set.

The nature of series [21]: from Villegas-Navarro, A.; Rodriguez, M. (1984). Structure-activity relationships between quinone moieties and inhibition of sodium transport. In Kuchar, M. (Ed.) QSAR in Design of Bioactive Compounds. ….
The nature of series [22]: method code SF-AS, from DOI: 10.1021/jf60217a021, PMID: 659709.
Assay in series [23]: not given
The source holds these as a separate data set.

Assay in series [24]: not given
This is another data set of the same source.

A short description of series [25]: from Tehrany, E.A.; Desobry, S. (2005). Comparison between the different calculation methods of partition coefficient of aroma compounds with a difference chemical classes in octanol/water system. ….
A short description of series [26]: method code SF-AS, from DOI: 10.1016/0006-2952(80)90068-4, PMID: 6775639.
A short description of series [27]: method code SF-AS, from DOI: 10.1081/jlc-100100410. The note with it: pH 4.0.
Assay in series [28]: not given
The source holds these as a separate data set.

The nature of series [29]: method code SF-RC, from DOI: 10.1016/j.nucmedbio.2014.03.023, PMID: 24768149. The conditions noted are these: pH 7.4.
A short description of series [30]: method code SF-AS, from DOI: 10.1139/y89-042, PMID: 2547502. The note with it: pH 7.4.
Assay in series [31]: not given
This is another data set of the same source.

Series [32] can be described thus: method code SF, from Korenman, I.; Polumestnaya, I. (1982). Principles of interfacial distribution of certain substituted naphthalenes. Zh. Prikl. Khim., 55(2)364-367.
Series [33] can be described thus: method code SF-AS, from DOI: 10.1016/s0090-9556(25)07961-9, PMID: 6130927.
Series [34] can be described thus: method code SF, from PMID: 23342302. The note with it: pH 7.4.
A short description of series [35]: method code SF-CR, from PMID: 15170. The conditions noted are these: pH 3.0.
Series [36] can be described thus: method code SF, from DOI: 10.1248/cpb.42.1525, PMID: 7923475.
Series [37] in a line: method code SF-AS, from PMID: 3774812. The conditions noted are these: pH 4.0.
A short description of series [38]: method code SF-HPLC, from DOI: 10.1124/dmd.30.12.1497, PMID: 12433825. The conditions noted are these: pH 7.4.
The nature of series [39]: method code …, from Kristl, A.; Vesnaver, G.; Mrhar, A.; Kozjek, F. (1993). Evaluation of partitioning and solubility data for some guanine derivatives in terms of mutual miscibility of octanol and water phase. …. The conditions noted are these: pH 5.2.
A short description of series [40]: method code SF-CR+AS, from Korenman, I.; Tishchenko, M.; Kombarova, A. (1977). Distribution of dihydroxynaphthalenes between higher alcohols and water. Zh. Prikl. Khim., 50(4)899-901. The conditions noted are these: pH 2.0.
Series [41] in a line: method code SF, from DOI: 10.1248/cpb.18.708. The note with it: pH 6.4.
A short description of series [42]: method code SF-GLC, from DOI: 10.1007/s002679900238, PMID: 10486045.
Series [43] is described as follows: method code SF, from PMID: 7429676. The conditions noted are these: pH 7.4.
The conditions of series [44]: pH 4.3.
A short description of series [45]: method code SF-AS, from DOI: 10.1016/0039-9140(66)80126-1, PMID: 18959847. The note with it: pH 7.5.
Assay in series [46]: not given
The source holds these as a separate data set.

Molecules are shown by their SMILES.

logP and logD data for 47 compounds are collected here from the SangsterLogP compilation.

For orientation: logD means lipophilicity at a set pH, counting ionised and neutral species. Read a high logD as a more lipophilic compound.

`Nc1ccc([N+](=O)[O-])c2ccccc12` yielded a logP of 1.77. With `C=CCC1(C(=O)NC(N)=O)CC(C)OC1=O` (configuration not stated), in [1], the pH-dependent lipophilicity (logD) turned out to be 0.36. `Nc1nc(Cl)nc2c1ncn2[C@@H]1O[C@H](CO)[C@@H](O)[C@@H]1F` returned a pH-dependent lipophilicity (logD) in series [2] of 0.5. `Cc1c(I)c(=O)n(-c2ccccc2)n1C` displayed a logP in [3] of 1.27. As for `CCCOC(=O)[C@@]1(C)[C@H](CO)CC=[N+]1[O-]`, the log distribution coefficient (logD) in series [4] was -0.82. As for `CCOP(=S)(OCC)Oc1ccccc1`, the logP in series [5] was found to be 3.46. `CC1(Br)C(=O)NC(=O)N2C3CC(N=[N+]=[N-])C(COC21)O3` (configuration not stated): in [6], the logP was 1.11. For `CC(=O)OCC(Cn1ccnc1[N+](=O)[O-])OC(C)=O` (configuration not stated), the logP in [7] was -0.05. On to `CC(=O)Nc1ccc(OC(=O)CBr)cc1`, for which, in series [8], the logP turned out to be 1.08. As to `O=c1ccc2ccc3occc3c2o1`, the logP in [9] was found to be 2.08. `CCC1(CC(C)C)C(=O)NC(=O)NC1=O` showed a logP in series [10] of 1.69. As to `OC[C@@H]1C[C@@H](F)[C@H](n2cnc3c(F)ncnc32)O1`, in series [11], the logP amounted to 0.06.

As for `Cc1cn([C@H]2O[C@@H](CO)[C@H](O)[C@H]2F)c(=O)[nH]c1=O`, the logP in [12] was -0.51. Regarding `CCOP(N)(=O)O/N=C(/C#N)c1ccccc1` (configuration not stated), the logP in series [13] was found to be 0.72. Compound `O=S(=O)(O)c1cccc2c(O)cccc12` registered a logP in series [14] of -0.17.

Regarding `CCCOc1cc(N)ccc1C(=O)O`, the logP in series [15] turned out to be 1.53. Regarding `O=C(O)CCCc1ccccc1`, in series [16], the logD was found to be 2.32. In series [17], `CN(C)/N=N/c1ccc(CC(=O)O)cc1` gave a logP of 1.38. `CCCCCCCCC(Cl)C(Cl)(Cl)Cl` (configuration not stated) displayed a logP in series [18] of 5.93. In the case of `Nc1nc2c(ncn2C2CC(O)C(CO)O2)c(=O)[nH]1` (configuration not stated), the log distribution coefficient (logD) in [19] was -1.3. Consider `CCNc1nc(NC(C)(C)C)nc(SC)n1`, for which the logP in series [20] is 3.43. `CC1=CC(=O)C(C(C)C)=CC1=O` had a logP in series [21] of 2.2. With `COC(=O)N(C)SN(C)C(=O)O/N=C(\SC)C(=O)N(C)C`, in [22], the logP is -0.07. Take `COc1ccc(NC(=O)C2CC2)cn1`: the logP in [23] was found to be 1.57. In turn, `O=C(O)CNC(=O)OCc1ccccc1` returned a logP in [24] of 1.47.

On to `CCCCCCCCCC(=O)O`, for which, in series [25], the logP was 3.91. The compound `CC1=CC(=O)c2ccccc2C1=O` yielded a logP in series [26] of 1.88. In turn, `Nc1ccc(S(=O)(=O)Nc2ccc(Cl)nn2)cc1` registered a logD in series [27] of 0.86. On to `C1COCCOCCOCCOCCO1`, for which the logP in series [28] was -0.48. In [29], `FCCOC1CCC=CCCC1` (configuration not stated) gave a log distribution coefficient (logD) of 1.68.

In series [30], `Nc1ncnc2c1nc(Br)n2[C@@H]1O[C@@H]2COP(=O)(O)O[C@H]2[C@H]1O` returned a logD of -2.44. In series [31], `NC12CC3CC(CC(C3)C1)C2` registered a logP of 2.54. With `O=S(=O)(O)c1cc(O)c2ccccc2c1`, the logP in series [32] is -0.18. In [33], `CCC(N)Cc1ccccc1` (configuration not stated) had a logP of 2.28. Regarding `Nc1nc(=O)c2ncn(CCC(CO)CF)c2[nH]1` (configuration not stated), the pH-dependent lipophilicity (logD) in [34] was -0.87. In the case of `CCc1nnc(NS(=O)(=O)c2ccc(N)cc2)s1`, in series [35], the logD was determined as 1.01. `CCCC(=O)c1ccccc1` came in with a logP in series [36] of 2.66. As for `Cc1c(CC(=O)O)sc2ccc(Cl)cc12`, the logD in [37] was determined as 3.12. With `CN1C(=O)CC(c2ccccc2)C1=O` (configuration not stated), the pH-dependent lipophilicity (logD) in [38] was 0.68. As for `CC(=O)Nc1nc2c(ncn2COCCO)c(=O)[nH]1`, in series [39], the log distribution coefficient (logD) was -1.3. For `Oc1cc(O)c2ccccc2c1`, in [40], the log distribution coefficient (logD) was 1.97. For the compound `COc1ccc(NS(=O)(=O)c2ccc(N)cc2)nn1`, in series [41], the logD worked out at 0.4. Compound `C=C(C)C1CCC(C)(O)C1C` (configuration not stated) had a logP in series [42] of 2.87. In [43], `CC(O)Cn1cnc2c1c(=O)n(C)c(=O)n2C` (configuration not stated) came in with a log distribution coefficient (logD) of -0.77. With `Nc1ccc(S(=O)(=O)Nc2ncccn2)cc1`, the pH-dependent lipophilicity (logD) in [44] was -0.04. On to `Cc1ccc2cccc(O)c2n1`, for which, in series [45], the logD amounted to 2.33.

`C=C(C)C(=O)OC1CCCCC1`: the logP in series [46] was determined as 2.98.
